Reference: patent US9925222B2, “Gut barrier dysfunction treatment and prevention” (ALBERT EINSTEIN COLLEGE OF MEDICINE OF YESHIVA UNIVERSITY, priority 2012, dated 2018)

Assays:
[1] = system: Tnf-α, Zo-1 and E-cad mRNA expression in gut epithelium; experiment: Ex vivo treatment of gut mucosa with OLA, rescue with indole and IPA, qPCR; assay type: cell-based; settings: OLA 5 mg/ml, 3 h ex vivo; all mice genotypes
Procedure: Freshly isolated gut mucosa were incubated in the presence of OLA (5 mg/ml) for 3 h at 37° C., 5% CO2 (13). After 3 h of OLA treatment, enterocytes were isolated and pooled for RNA isolation. […] Experiments were performed at least two independent times. OLA has […] (log P), thus is unsuitable for in vivo studies of luminal bacterial enzyme inhibition (Pubchem, ST093573). 2.0 μg of total RNA extracted from pooled apical enterocytes with TRIzolR (Invitrogen), were reverse transcribed with random hexamer primers and SuperScriptTM III-RT enzyme (Invitrogen). Quantitative PCR (qPCR) reactions using TaqMan universal PCR master mix and TaqMan probes containing FAM as the 5' reporter fluorochrome and tetramethylrhodamine (MGB) as the 3' quencher fluorochrome, were performed in triplicate for each sample and analyzed on the ABI Prism 7900HT system. Primers and minor groove binder/non-fluorescent quencher probes used for PCR amplification were obtained from Applied Biosystems as well as the following assays on demand: […] Controls include RT-minus RNA samples. PCR reaction conditions for all assays were set at 50° C. for 2 minutes, 95° C. for 10 minutes, followed by 40 cycles of amplification (95° C. for 15 seconds then 60° C. for 1 minute).

[2] = Pubchem, ST093573; cited from earlier work

SMILES: NC(CC1C(=O)Nc2ccccc21)C(=O)O [OLA, Oxindolyl L-alanine]
- Enterocyte Tnf-α mRNA expression after OLA [1]: enhanced enterocyte Tnf-α mRNA expression
- Expression of junctional regulators (Zo-1 and E-cad) after OLA [1]: diminished expression of junctional regulators
- Predicted oral bioavailability (log P) [2]: high
